Data: PubChem BioAssay AID1159565 (GlaxoSmithKline (GSK), 2015)
pIC50: −log10 of the molar value. Active and inactive are the calls of the source. The rule behind the calls is not given here.

System: T. cruzi-infected H9C2 cardiomyocytes, high-content imaging
Experiment: anti-T. cruzi activity in infected cardiomyocytes – imaging, H9C2 host cardiomyocytes, host toxicity (AID 1159565);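 note: infected cells incubated 72 h after plating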
[1] = measured here: H9C2 host cell toxicity
[2] = measured here: amastigotes per cell

For `CNS(=O)(=O)c1ccccc1Nc1nc(Nc2cc(C)nn2C)ncc1Cl`, the pIC50 was 6.10, the pIC50 [1] was 6.60 and the pIC50 [2] was 6.30.

For `COc1ccc([N+](=O)[O-])cc1NC(=O)c1cc(Cl)ccc1O`, the pIC50 was 4.80, the pIC50 [1] was under 4.30 and the pIC50 [2] was 5.10.

Work on `O=C(NCC1CCCCC1)c1cc(=O)c2ccccc2o1` yielded a pIC50 of 6.20, a pIC50 [1] of 4.49 and a pIC50 [2] of 6.30.

`Cc1c([N+](=O)[O-])c(C(=O)Nc2sc3c(c2C#N)CCC(C)C3)nn1C` (stereo not drawn) was tested, and the pIC50 was 5.60, the pIC50 [1] was under 4.30 and the pIC50 [2] was 5.80.

For `CC(C(=O)Nc1ccc(Br)cc1)N1CCN(c2ccc([N+](=O)[O-])cc2)CC1` (stereo not drawn), the pIC50 was 5.60, the pIC50 [1] was under 4.30 and the pIC50 [2] was 5.49.

With `COc1ccc2nc(N(Cc3cccnc3)C(=O)C3CCC3)sc2c1` the pIC50 was 6.89, the pIC50 [1] was under 4.30 and the pIC50 [2] was 7.00.

With `COc1ccc(C(C)N(C)c2ncc3c(N)nc(N)nc3n2)cc1F` (stereo not drawn) the pIC50 was 6.70, the pIC50 [1] was 4.60 and the pIC50 [2] was 7.20.

`COc1ncc(-c2ccc3nccc(-c4ccncc4)c3c2)cc1NS(C)(=O)=O` showed a pIC50 of 4.60, a pIC50 [1] of 5.30 and a pIC50 [2] of 4.89.

In the case of `COc1cc(NC(=O)Nc2cccc(CNC(=O)OC3CCCCC3)c2)ccc1-c1cnco1`, the pIC50 was 4.60, the pIC50 [1] was 4.80 and the pIC50 [2] was 4.49.

Compound `CC(=O)Nc1ccc(CN2CCC(N3CC(c4ccccc4)(c4ccccc4)OCC3=O)CC2)cc1` has a pIC50 of 4.49, a pIC50 [1] of under 4.30 and a pIC50 [2] of 4.70.

`O=C(NCCc1ccn(-c2ccccc2)n1)C1CCCCC1` was tested, and the pIC50 was 6.00, the pIC50 [1] was under 4.30 and the pIC50 [2] was 6.00.

For `CC(C)c1nn(-c2nc(N)nc(-c3ccccn3)n2)c(N)c1C1CCCCC1`, the pIC50 was 5.89, the pIC50 [1] was 5.49 and the pIC50 [2] was 5.89.

Compound `Fc1ccccc1N1C[C@H]2CCN(c3cccnc3)C[C@H]2C1` has a pIC50 of 6.70, a pIC50 [1] of under 4.30 and a pIC50 [2] of 6.70.

With `CC(C)(C)CC(=O)NCCc1csc(-c2ccc(F)cc2)n1` the pIC50 was 6.00, the pIC50 [1] was under 4.30 and the pIC50 [2] was 6.10.

For `CCc1cc(C(=O)Nc2nccn2-c2ccccc2)cs1`, the pIC50 was 5.30, the pIC50 [1] was 4.70 and the pIC50 [2] was 5.49.

Work on `O=C(NCCc1nc(-c2ccc(F)c(F)c2)n[nH]1)C1CCCCC1` yielded a pIC50 of 5.60, a pIC50 [1] of under 4.30 and a pIC50 [2] of 5.80.

With `CC(C)(C)c1csc(NC(=O)c2ccc([N+](=O)[O-])s2)n1` the pIC50 was 6.49, the pIC50 [1] was 4.89 and the pIC50 [2] was 6.70.

Work on `Clc1ccc(Sc2cnccc2N2CCOCC2)cc1` yielded a pIC50 of 6.89, a pIC50 [1] of under 4.30 and a pIC50 [2] of 7.00.

`Cc1ccc(C)c(CN2C(=O)NC3(CCc4ccccc43)C2=O)c1` (stereo not drawn) was tested, and the pIC50 was 4.70, the pIC50 [1] was under 4.30 and the pIC50 [2] was 5.10.

With `CN(C)c1ccc(-c2cc3nccnc3c(OC[C@H]3CCCNC3)n2)cn1` the IC50 was > 50 µM (inactive), the pIC50 [1] was 4.70 and the pIC50 [2] was 5.80.

With `CNc1cncc(C2CCCN2C(=O)Cc2coc3cc(C)ccc23)n1` (stereo not drawn) the pIC50 was 6.70, the pIC50 [1] was under 4.30 and the pIC50 [2] was 6.70.

For `COc1ccc(NC(=O)c2ccc(NC(=O)CN(c3ccccc3C)S(C)(=O)=O)cc2)cc1`, the pIC50 was 4.60, the pIC50 [1] was 4.60 and the pIC50 [2] was 4.70.

For `COc1ccc(OC)c(S(=O)(=O)N(Cc2c(F)cccc2F)[C@@H]2CCN(C#N)C2)c1`, the pIC50 was 4.89, the pIC50 [1] was 4.80 and the pIC50 [2] was 5.20.

In the case of `c1ccc2sc(Nc3nc4ncccc4[nH]3)nc2c1`, the pIC50 was 5.80, the pIC50 [1] was 6.00 and the pIC50 [2] was 5.89.

For `CC1CN(Cc2ccc(C#N)cc2)CCN1c1ccc(NC(=O)c2ccccc2F)cc1` (stereo not drawn), the IC50 was > 50 µM (inactive), the pIC50 [1] was under 4.30 and the pIC50 [2] was under 4.30.

`COc1cc(OC)cc(C(NS(=O)(=O)c2ccc(Cl)c(C(F)(F)F)c2)c2nccn2C)c1` (stereo not drawn) showed a pIC50 of 5.20, a pIC50 [1] of 5.00 and a pIC50 [2] of 5.49.
